Consider nine compounds from publication PMC12169489, “Allosteric Covalent Inhibitors of the STAT3 Transcription Factor from Virtual Screening” (ACS Medicinal Chemistry Letters, 2025).

Several values for one entry are separate records, joined by “and”; a condition that tells them apart may be missing. Equal entries are not always repeated.

As usually defined, the IC50 is the concentration that gives 50% inhibition. A low value points to greater potency.

In test [1] the target is T1, STAT3 protein (residues 127–688) (Homo sapiens, UniProt P40763).
T1 construct: The STAT3 protein (residues 127–688) was expressed and purified; made in house
T1 sequence (P40763 127-688): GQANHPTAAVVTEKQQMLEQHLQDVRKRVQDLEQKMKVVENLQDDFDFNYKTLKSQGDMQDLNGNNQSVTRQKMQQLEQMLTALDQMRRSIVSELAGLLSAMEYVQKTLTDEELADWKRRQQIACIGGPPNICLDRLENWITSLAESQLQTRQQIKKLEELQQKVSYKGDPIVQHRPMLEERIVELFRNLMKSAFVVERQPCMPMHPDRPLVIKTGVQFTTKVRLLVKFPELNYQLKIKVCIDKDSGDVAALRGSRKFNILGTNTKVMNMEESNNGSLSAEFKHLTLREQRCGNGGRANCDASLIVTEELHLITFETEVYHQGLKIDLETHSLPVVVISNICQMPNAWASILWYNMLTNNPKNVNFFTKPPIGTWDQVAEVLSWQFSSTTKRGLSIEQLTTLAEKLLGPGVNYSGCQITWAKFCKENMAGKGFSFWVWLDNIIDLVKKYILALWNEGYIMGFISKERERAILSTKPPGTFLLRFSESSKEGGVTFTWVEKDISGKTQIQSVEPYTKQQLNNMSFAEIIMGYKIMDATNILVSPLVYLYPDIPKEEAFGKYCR
The test is described as follows: Fluorescence polarization (FP) assay, 5-FAM-G(pTyr)LPQTV-NH2 peptide. It counts as binding. To be noted: 200 nM STAT3, 5 nM fluorescent peptide, 1 h at 37 °C preincubation, mean ± 95% confidence interval, 3 replicas. Here is the method:
The STAT3 protein (residues 127–688) was expressed and purified as described in our recent work. Fluorescence polarization assays were performed on a Molecular Devices SpectraMax iD5Multimode Microplate Reader (San Jose, CA, USA) using Greiner black 384-well flat-bottom nonbinding microplates with 40 μL final well volumes. The fluorescent peptide (5-FAM-G(pTyr)-LPQTV-NH2, purchased from GenScript Biotech Ltd., Piscataway, NJ, USA), as well as the protein were diluted with a buffer containing 50 mM NaCl, 10 mM HEPES (4-(2-hydroxyethyl)-1-piperazineethanesulfonic acid), 1 mM EDTA (ethylenediaminetetraacetic acid), 2 mM DTT (dithiothreitol), and 0.1% Triton X-100, pH 7.5. The final concentration of the STAT3 protein was 200 nM, and the fluorescent peptide was added at a final concentration of 5 nM. The wells were treated with varying concentrations of inhibitor compounds, with a 5% final DMSO content. Protein and inhibitors were incubated at 37 °C for 1 h. Then the fluorescence peptide was added, and then the plate was incubated for another 20 min prior to the fluorescence readout (extinction wavelength: 475 nm, emission wavelength: 520 nm). The measurements were carried out using 3 parallel biological replicas. Fluorescence polarization was calculated from the perpendicular and parallel fluorescence intensities and then plotted against concentration. The IC50 values were determined after fitting […] dose–response curves on data points using GraphPad Prism 8.0.1. software.
Figure S6. Fluorescence polarization assay results. Nonlinear curve fitting was used ([Inhibitor] vs. response - Variable slope (four parameters)) with least squares fitting. IC50s are presented with 95% confidence intervals, measurements were done in 3 parallel biological replicas.

Test [2] has as its target STAT3 protein (Homo sapiens, UniProt P40763). The test is described as follows: Intact protein LC-MS labelling. It counts as binding. An excerpt:
1 Overview of the virtual screening workflow and hit follow-up. (a) Overview of the covalent docking virtual screening workflow, including representation of the key residues inside the binding site and highlighting the C259 residue. Remaining molecules after each step are included in parentheses. (b) Schematic representation of the expected mass peaks and shifts from the MS results for single and multiple labeling. The values assigned to the peaks for other than the peak corresponding to the unlabeled protein represents mass shift(s) resulting from successful labeling.
RPLC-MS analysis of the intact proteins were performed on a a Triple TOF 5600+ hybrid Quadrupole-TOF LC/MS/MS system (Sciex, MA, USA) equipped with a DuoSpray IonSource coupled with a Shimadzu Prominence LC20 UFLC (Shimadzu, Japan) system consisting of quaternary pump, an autosampler and a thermostatted column compartment. Chromatographic separation was achieved on the Discovery® BIO Wide Pore C-18-5 (250 mm × 2.1mm, 5 μm, 300 Å) HPLC column. Sample was eluted in gradient elution mode using solvent A (0.1% formic acid in water) and solvent B (0.1% formic acid in ACN). The initial condition was 5% B for 7 min, followed by a linear gradient to 90% B by […], from 55 to 63 min 90% B was retained; and from 63 to 65 min back to initial condition with 5 % eluent B and retained for 10 min. Flow rate was set to 0.2 ml/min. […]

Chain of STAT3 protein (P40763 127-688 limits assumed): as the sequence (P40763 127-688) above

For the compound `C=CC(=O)N1CCCC(C(=O)NCc2ccc3c(c2)OCO3)C1` (centres unmarked) [6a, 1-acryloyl-N-(benzo[d][1,3]dioxol-5-ylmethyl)piperidine-3-carboxamide], it took 50.4 ± 39.4 µM to reach half-maximal inhibition in test [1] (IC50).

For `C=CC(=O)N1CCCC(O)(C(=O)NCc2ccc3c(c2)OCO3)C1` (centres unmarked) [6b, 1-acryloyl-N-(benzo[d][1,3]dioxol-5-ylmethyl)-3-hydroxypiperidine-3-carboxamide], the “Covalent labelling of STAT3 (single vs multiple)” value in test [2] was “single labeling”. In test [1], this compound registered an IC50 of 2.91 ± 0.66 µM.

Regarding `CCC(=O)N1CCCC(C(=O)NCc2ccc3c(c2)OCO3)C1` (centres unmarked) [10a, N-(benzo[d][1,3]dioxol-5-ylmethyl)-1-propionylpiperidine-3-carboxamide], the half-maximal inhibitory concentration (IC50) in test [1] came out at 141 ± 53.4 µM.

Compound `CCC(=O)N1CCCC(O)(C(=O)NCc2ccc3c(c2)OCO3)C1` (centres unmarked) [10b, N-(benzo[d][1,3]dioxol-5-ylmethyl)-3-hydroxy-1-propionylpiperidine-3-carboxamide] showed an IC50 in test [1] of 86.7 ± 49.9 µM.

`C=CC(=O)N1CCCC(C(=O)NCc2cc(Br)c3c(c2)OCO3)C1` (centres unmarked) [K2] showed a 50% inhibitory concentration (IC50) in test [1] of 40.7 ± 16.7 µM.

With `C=CC(=O)N1CC(C(=O)NCCN2CC3CCCCN3C2=O)C1` (centres unmarked) [K3], the IC50 in test [1] is 255 ± 124 µM.

For the compound `C=CC(=O)N1CCC(C(=O)NCC(O)c2c(F)cccc2F)CC1` (centres unmarked) [K6], half-maximal inhibition in test [1] (IC50) was put at 44.9 ± 22.7 µM.

As to `C=CC(=O)N1CCC(C(=O)N2CCN(C(=O)Cc3ccccc3C)CC2)CC1` [K10], the IC50 in test [1] was 94.6 µM and 94.5 µM.

In the case of `C=CS(=O)(=O)N1CCCC(C(=O)NCc2ccc3c(c2)OCO3)C1` (centres unmarked) [compound 8, N-(benzo[d][1,3]dioxol-5-ylmethyl)-1-(vinylsulfonyl)piperidine-3-carboxamide], in test [2], the “Covalent labelling of STAT3 (single vs multiple)” value was “labeled the protein at multiple residues”. In addition, in test [1], the IC50 was 33.4 ± 5 µM.
